Experimental data published in patent US6440417B1, “Antibodies to argatroban derivatives and their use in therapeutic and diagnostic treatments” (ConjuChem, Inc., priority 1998, dated 2002).

What was measured:
[1] = test system: plasma proteins; test: Western blot of plasma proteins derivatized in vitro with argatroban derivatives; settings: human and rat whole blood, 100 μM, 30 minutes; bands from less than 39.5 kDa to greater than 193 kDa
Procedure: (§1) Whole blood samples were treated with argatroban derivatives to yield plasma proteins and red blood cells derivatized with argatroban. Fresh citrated human, rabbit (New Zealand) and rat (Sprague Dawley) whole blood samples were incubated with 100 μM (final concentration) Argatroban-C6-NHS, Argatroban-C16-Maleimide or DMSO, for 30 minutes at room temperature under gentle agitation. After quenching the reaction with 1 mM lysine or cysteine, the whole blood was centrifuged 10 min at 2500 rpm. Labelled plasma were recovered and stored at −20° C. until use. Labelled red blood cells (RBCs) were washed three times in PBS (5 min at 2500 rpm).
Labeled plasma were diluted 1/10 in water. Five μl of diluted plasma (·30 μg protein) were mixed with electrophoresis buffer and separated by SDS-PAGE using an 8% polyacrylamide gel, under non-reducing conditions. Plasma proteins were then transferred onto nitrocellulose sheet with a semi-dry transfer apparatus. Efficacy of transfer was checked by reversible staining with 1% Ponceau Red. The blot was saturated with tris-buffered saline (TBS) containing 5% gelatin and 0.1% Tween 20, for 2H at 37° C. to minimize non-specific binding. After three washes with TBS-1 % Tween 20 (TBS-T), the blot was incubated with rabbit anti-argatroban polyclonal serum from diluted 1/20,000 in TBS containing 1% gelatin and 0.1% Tween 20 (TBS-GT), for 1H30 at RT. […]

[2] = test system: red blood cells; test: Flow cytometry of red blood cells derivatized in vitro with argatroban derivatives; format: cell-based, human, rabbit, rat; settings: RBCs from whole blood incubated with 100 μM derivative, each sample
Procedure: as §1
After the last centrifugation, a 10% suspension of labelled red blood cells (RBCS) was made in PBS. Five μl of the suspension was mixed with rabbit anti-argatroban polyclonal sera from Example 4 diluted 1/500 in PBS-1% BSA and incubated at room temperature for 1 hour. After three washes in PBS, the RBCs were incubated with 50 μl of FITC-labeled goat anti-rabbit Ig (BioAtlantic, Nantes) diluted 1/50 in PBS-1% BSA for 1 hour in the dark. After three washes, the RBCs were resuspended in 0.5 ml PBS and fluorescence was detected by flow cytofluorometer (Becton Dickinson).

[3] = test system: rat plasma proteins; test: Western blot of plasma from rats dosed in vivo; settings: intravenous, 5 minutes and 24 hours after dosing
Procedure: Fifteen Sprague-Dawley rats weighing 250-300 grams were randomized for treatment with either argatroban and argatroban derivative. Rats treated with argatroban received dosages of either 3 or 10 mg/kg (n=6 and respectively) administered intravenously. […] A control group of rats was treated with intravenous injection of DMSO (0.2 ml/kg, n=3). The study was divided into two groups. Plasma samples were obtained from group 1 rats at time periods of 5 min, 15 min, and 24 hrs after injection. Plasma samples were obtained from group 2 rats at 1 hr, 3 hr and 24 hr following injection. […] The collected plasma samples from these rats were frozen for subsequent evaluation of the extent of conjugation to plasma proteins using ELISA and western blot analysis.
Plasma samples obtained from the rats were diluted 1:50 in PBS and then further diluted 1:1 with 2× Laemmli non-reducing buffer (Novex). The samples were boiled for 5 min. after which 25 ul of each sample were loaded per well of 8% acrylamide SDS-PAGE precast gel (10 lanes/1 mm gel, Novex). Samples were run in replicates for staining with Coomassie blue and for transfer to nitrocellulose.
Gels were run at a constant voltage of 120 V until the dye fronts reached the bottom of gels. […]

| Compound | protein bands identified in derivatized plasma samples [1] | mean fluorescence signal relative to argatroban-maleimide derivatized cells [2] | plasma protein labelling / association with anti-argatroban antisera [3] |
| --- | --- | --- | --- |
| CC1CNc2c(cccc2S(=O)(=O)N[C@@H](CCCN=C(N)N)C(=O)N2CC[C@@H](C)C[C@@H]2C(=O)NCCCCCC(=O)ON2C(=O)CCC2=O)C1.Cl.Cl (stereo partly drawn) [argatroban-NHS] | Numerous protein bands | 3 to 7 times |  |
| CC1CNc2c(cccc2S(=O)(=O)N[C@@H](CCCNC(=N)N)C(=O)N2CC[C@@H](C)C[C@@H]2C(=O)O)C1 (stereo partly drawn) [argatroban] |  |  | minimal protein association |
